Experimental data taken from patent US7790364B2, “Compositions and methods for high throughput screening of pharmacological chaperones” (The Board of Trustees of the Leland Stanford Junior …, priority 2006, dated 2010).

Experiments:
Type in all cases: cell-based
4S-ΔF508 CFTR [1] = target: T1, 4S-ΔF508 CFTR (Homo sapiens, UniProt P13569, DEL508-508/INS895[…]); test: Western blotting of CFTR expression in cells exposed to compound; conditions: FIG. 10
T1 construct: antibodies against the CFTR C-terminus to test for complete open reading frame; 4 x S-tag (KETAAAKFERQHMDS) with GGGG spacers, in the 4th extracellular loop; expressed in transfected cells
T1 sequence (P13569 with tags, fused parts or gaps DEL508-508/INS895[withheld]): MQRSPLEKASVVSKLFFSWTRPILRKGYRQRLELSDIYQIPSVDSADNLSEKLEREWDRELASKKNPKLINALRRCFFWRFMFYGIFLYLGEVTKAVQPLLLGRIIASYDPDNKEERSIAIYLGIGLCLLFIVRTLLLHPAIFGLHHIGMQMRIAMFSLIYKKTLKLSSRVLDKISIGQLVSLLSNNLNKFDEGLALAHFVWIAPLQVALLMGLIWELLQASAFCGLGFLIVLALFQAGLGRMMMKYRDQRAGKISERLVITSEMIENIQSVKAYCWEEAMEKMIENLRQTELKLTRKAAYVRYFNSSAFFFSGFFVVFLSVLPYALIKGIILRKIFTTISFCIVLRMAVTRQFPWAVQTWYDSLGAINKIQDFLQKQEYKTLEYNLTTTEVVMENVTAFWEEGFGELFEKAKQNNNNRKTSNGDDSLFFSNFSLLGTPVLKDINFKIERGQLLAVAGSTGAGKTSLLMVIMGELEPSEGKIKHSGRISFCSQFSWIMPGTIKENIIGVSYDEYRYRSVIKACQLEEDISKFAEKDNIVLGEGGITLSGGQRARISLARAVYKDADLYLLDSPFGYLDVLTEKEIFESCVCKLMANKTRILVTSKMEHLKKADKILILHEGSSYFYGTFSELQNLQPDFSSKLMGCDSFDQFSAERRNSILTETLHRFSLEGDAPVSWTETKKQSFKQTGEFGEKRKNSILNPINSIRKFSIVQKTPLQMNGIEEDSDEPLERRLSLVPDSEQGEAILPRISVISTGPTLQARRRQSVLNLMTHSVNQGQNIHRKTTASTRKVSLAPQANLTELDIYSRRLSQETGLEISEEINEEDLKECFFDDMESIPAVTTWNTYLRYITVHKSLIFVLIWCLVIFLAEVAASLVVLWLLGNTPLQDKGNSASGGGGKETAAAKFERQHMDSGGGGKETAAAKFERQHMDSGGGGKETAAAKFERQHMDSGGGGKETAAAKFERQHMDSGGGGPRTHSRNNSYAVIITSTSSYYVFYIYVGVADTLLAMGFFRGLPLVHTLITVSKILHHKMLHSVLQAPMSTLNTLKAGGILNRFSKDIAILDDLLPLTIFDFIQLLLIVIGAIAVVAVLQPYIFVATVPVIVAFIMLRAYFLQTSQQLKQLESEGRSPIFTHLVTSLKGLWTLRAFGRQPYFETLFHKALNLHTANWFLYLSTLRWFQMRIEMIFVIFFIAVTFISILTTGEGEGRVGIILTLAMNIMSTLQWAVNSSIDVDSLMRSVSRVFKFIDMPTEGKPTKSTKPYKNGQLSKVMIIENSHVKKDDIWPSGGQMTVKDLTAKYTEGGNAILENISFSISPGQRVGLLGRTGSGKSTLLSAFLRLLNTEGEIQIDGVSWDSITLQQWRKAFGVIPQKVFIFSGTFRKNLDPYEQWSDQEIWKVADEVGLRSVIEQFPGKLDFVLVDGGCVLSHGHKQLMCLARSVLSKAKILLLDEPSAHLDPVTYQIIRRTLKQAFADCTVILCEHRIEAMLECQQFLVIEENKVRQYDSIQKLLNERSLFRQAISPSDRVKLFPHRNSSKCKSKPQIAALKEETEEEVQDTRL

4S-ΔF508 CFTR [2] = target: T1, 4S-ΔF508 CFTR; test: RNAase S complementation screening assay on 4S-ΔF508 CFTR expressing CHO cells; conditions: LOPAC1280 library screen
Method: Optimize conditions for homogeneous cell-based assay for ΔF508-CFTR rescue. Surface detection of S-protein tagged CFTR used reconstitution of RNAase S activity and detection with the fluorogenic probe 6-F-dArUdAdA-6-TMR.
Screening was carried out on a customized apparatus (SAGIAN, Beckman) containing a 3-m rail Optimized Robot for Chemical Analysis that integrates the following robot-accessible instruments on a 4×2-m optical table: (a) SAGIAN 180 CO2 incubator, which holds 180 standard microplates in a storage carousel; (b) Elx405-Select plate washer with valve option and vacuum-sensing/waste alert for complex automated wash cycles; (c) SAGIAN MPS-8 CS incubator (holds eight standard microplates at 4-37±1° C.); […] SAGIAN shaker (six plate positions, frequency range 40-1100 rpm with variable amplitude); (e) Biomek 2000 liquid handling work station (installed with four positions to hold tip boxes with automatic air locks and six positions for microplates and liquid reservoirs, and MP 20 and MP 200 8-channel tip tools for liquid transfer); (f) SAGIAN carousel (holding 40 pipette tip boxes and 90 microplates); (g) SAGIAN bar code reader; (h) SAGIAN microplate lidding station with automatic vacuum control of six suction cups; (i) two FluoStar fluorescence plate readers (BMG Lab Technologies), each equipped with two-syringe pumps.
Data collection and analysis. […]

4S-ΔF508 CFTR [3] = target: T1, 4S-ΔF508 CFTR; test: FACS assay measuring S-tag epitopes at the cell surface with a polyclonal antibody; conditions: for surface expression of CFTR (FACS): different concentrations, 1 or 2 days, with or without induction of 4S tag delta F508 expression, compared with 28° C. positive control
Excerpt: The library was screened against 4S-ΔF508 CFTR expressing CHO cells using the assay described in Example 2 above. Each of these compounds was retested using an FACS assay to measure S-tag epitopes at the cell surface with a polyclonal antibody, as shown in FIG. 8.

4S-ΔF508 CFTR [4] = target: T1, 4S-ΔF508 CFTR; test: Immunofluorescence labeling using polyclonal S-tag antibody; conditions: varying doses, FIG. 11

O=C(/C=C/c1ccc(O)cc1)c1ccc(O)cc1O [Compound 6, 4,2′,4′-trihydroxychalcone]
expression of the protein assessed by western blotting (4S-ΔF508 CFTR [1]): increased expression
activity in the assays of the invention (4S-ΔF508 CFTR [2]): active
activity in the rescreening assays (4S-ΔF508 CFTR [3]; FACS, S-tag epitopes at the cell surface): active
surface expression of CFTR (FACS) (4S-ΔF508 CFTR [3]): significant, dose dependent increase
surface expression of CFTR (FACS) (4S-ΔF508 CFTR [3]; listed as isoliquiritigenin): significant and dose-dependent upregulation
expression by immunofluorescence labeling using polyclonal S-tag antibody (4S-ΔF508 CFTR [4]): increased expression
